In publication PMC10584170, “Machine learning-based phenotypic imaging to characterise the targetable biology of Plasmodium falciparum male gametocytes for the development of transmission-blocking antimalarials” (PLOS Pathogens, 2023):
Where two headings read alike, the source gives them in different places.

Assays:
[1] = test system: P. falciparum male gametocytes; assay: PhIDDLI screening assay, 24 h preincubation at 10xIC50, tubulin/DAPI imaging of male gametogenesis; format: cell-based, Plasmodium falciparum NF54; settings: approximately 10xIC50, fixed 20 min post-induction
Description: Mature gametocytes were treated for 24h with approximately 10xIC50 of test compounds or DMSO as a solvent control. Male gametogenesis was then induced by lowering the temperature from 37°C to ~20°C and adding xanthurenic acid. 20min later, when male gametogenesis (exflagellation) could be expected to peak, all samples were fixed. A sample of non-induced DMSO-treated gametocytes was fixed with 4% paraformaldehyde to provide an unactivated gametocyte control for comparison. The cells were then processed for immunofluorescence using an antibody against alpha-tubulin II and DNA staining with 4′,6-diamidino-2-phenylindole (DAPI) and visualised by fluorescence microscopy. Tubulin-bright cells from each treated sample were imaged and captured at random.
Cells were identified using a semi-automated pipeline established in the ICY BioImageAnalysis (https://icy.bioimageanalysis.org/) protocols module. Images and accompanying bounding boxes representing the outlines of identified cells were then passed to the PhIDDLI pipeline. PhIDDLI consists of several open source image processing and AI/ML modules connected for seamless processing, clustering and visualisation of cellular phenotypes (Fig 3A). […] To focus on the overall cellular phenotype rather than potentially confounding variable immunostaining intensities between experimental replicates, cells were transformed so that the range of staining intensities for each channel were normalised to fall between a 0–255 pixel intensity value. Then, using the Albumentations module (https://albumentations.ai/) to augment the dataset and control for cells in different orientations, each extracted cell image was rotated 90, 180 and 270 degrees and mirrored so that each cell was represented eight different times in the dataset. The augmented images were then passed to the EffcientNet-B1 module (https://github.com/tensorflow/tpu/tree/master/models/official/efficientnet) (a pretrained neural network developed for image processing) which extracted 1,000 distinct numerical features from each individual cell image. The EfficientNet-B1 was selected from amongst the other EfficientNet models due to its input image size (240 pixels) best matching the size of the individual cell images in the dataset, therefore ensuring maximal input data whilst allowing acceptable computation time on a desktop computer. […]
Mature gametocyte cultures were divided into 100 μl “microcultures” in pre-warmed 1.5 ml tubes also containing 100 μl complete culture medium with test compounds at a final concentration of 10xIC50 or 0.5% DMSO as a solvent control. Tubes were gassed and incubated at 37°C for 24 h. The entire compound library was screened once, spread over four different experiments, each with two DMSO control tubes. An 8% formaldehyde solution was prepared by diluting 16% methanol-free formaldehyde in an equal volume of phosphate-buffered saline (PBS). In each experiment, one DMSO control tube was fixed with equal volume of 8% formaldehyde (4% final concentration) at 37°C to provide an “unactivated” gametocyte control. Gametogenesis was then triggered in the remaining DMSO control tube and all compound tubes by adding 10 μl ookinete medium, and they were immediately incubated at room temperature. After 20 min (when exflagellation is maximal), all remaining tubes were fixed for 30 min.
100 μl of the fixed cell suspensions were added to wells of a 24 well plate containing 1ml PBS and a poly-l-lysine-coated glass coverslip.

[2] = test system: P. falciparum male gametocytes; assay: P. falciparum Dual Gamete Formation Assay (PfDGFA), male readout (exflagellation); format: cell-based, Plasmodium falciparum NF54; settings: for IC50: this study, read-out: Pf DGFA IC50 MALE
In short: (§1)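 First, day-14 P. falciparum NF54 gametocytes receive compound for 24 h at 37°C in 1% O2/3% CO2. Next, ookinete medium with Cy3 anti-Pfs25 triggers gametogenesis at 28°C and male exflagellation is imaged. Finally, after 24 h in the dark, Cy3-labelled females are imaged.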

[3] = test system: P. falciparum female gametocytes; assay: P. falciparum Dual Gamete Formation Assay (PfDGFA), female readout (Pfs25-positive female gametes); format: cell-based, Plasmodium falciparum NF54; settings: for IC50: this study, read-out: Pf DGFA IC50 FEM
In short: as §1

[4] = test system: P. falciparum male gametocytes; assay: PhIDDLI timecourse assay, compound added at timepoints after triggering male gametogenesis; format: cell-based, Plasmodium falciparum NF54; settings: for impact on exflagellation: compound added concurrent with triggering gametogenesis or at any other point
Description: To gain greater understanding of their activity, selected molecules displaying different inhibition phenotypes in the initial screen were re-tested. Rather than subjecting gametocytes to a 24h preincubation prior to inducing gametogenesis, compounds were added at varying timepoints after triggering male gametogenesis. Samples were then fixed 20 min post-induction, imaged and analysed similarly using the PhIDDLI pipeline.
Alternatively, if compound action over time was to be assessed, 1.5ml tubes with appropriate dilutions of test compounds were prepared for each timepoint. Gametogenesis was then triggered in the mature gametocyte culture with ookinete medium and temperature decrease from 37°C. At appropriate times, 200 μl of triggered culture was sampled and mixed with test compound. All samples were then allowed to continue gametogenesis and fixed as described previously with paraformaldehyde after 20 min (when a DMSO-treated sample could be expected to be exflagellating).
100 μl of the fixed cell suspensions were added to wells of a 24 well plate containing 1ml PBS and a poly-l-lysine-coated glass coverslip. Cells were allowed to settle and adhere to the coverslip overnight at 4°C before coverslips were transferred to a hydrophobic membrane (Parafilm) for immunofluorescence staining in a humidified, dark box. Cells were permeabilised with 0.1% Triton-X100 in PBS for 10 min before washing in PBS three times. Non-specific binding was blocked by incubating coverslips with PBS + 10% fetal bovine serum (FBS) (blocking buffer) for 1 h. Gametocytes and microgametes were visualised by labelling with an anti-alpha tubulin antibody (raised from chicken embryo brain tubulin but cross-reacts with many other species) (clone DM1A (Sigma)) 1:500 dilution in blocking buffer for 1 h, washed as before, and then stained with an anti-mouse Alexa488 secondary antibody (Thermo-Fisher) 1:1,000 dilution in blocking buffer for a further 1 h. After a final series of washes, the coverslips were mounted on glass slides with VectaShield mountant (Vector Laboratories) containing 4′,6-diamidino-2-phenylindole (DAPI) to visualise cellular DNA.
All slides were imaged using a Nikon Ti fluorescence microscope using an x100 oil objective and 1.5x zoom. For each sample, tubulin-postive, DAPI-positive stained gametocytes/gametes were imaged at random. Z-stack images with 0.3μm slices were captured for each field of view and images deconvolved and transformed by maximum intensity projection within the Nikon NIS Elements software. Within raw images, cells were initially identified by an automated analysis pipeline developed in ICY Bioimage Analysis based upon the intensity of the tubulin staining captured which assigns a region of interest (ROI) around each cell. All ROIs were reviewed by a trained operator and adjusted if necessary to reflect the true outline of the cell (for example if two cells touching had been allocated the same ROI). Raw images contained between 1 and 8 extractable cells.
Code for the PhIDDLI pipeline was written in Python 3.8 and executed by command line within a 64-bit Ubuntu virtual machine running within Oracle VM VirtualBox 6.1. […] Principle component analysis of compound phenotypes (Fig 5) was performed using ClustViz (https://biit.cs.ut.ee/clustvis/) using ln(x+1) transformation, and k-means clustering of the resultant PCA data was coded in R and executed in R Studio version 1.1.456 to identify optimum cluster using the elbow method.

[5] = test system: P. falciparum gametocytes; assay: P. falciparum Gametocyte Viability ATP Assay (PfGCT); format: cell-based, Plasmodium falciparum; settings: Mean TOX HepG2 over GC-ATP IC50; GREEN = >10-fold; RED = <10-fold
Text: Fig 1 The activity of TCAMS compound identified in the Pf DGFA screen. (A) 85 molecules were confirmed active in the Pf DGFA. 58 were previously identified in one or more transmission-blocking screens. […] No molecule was identified with >4.7-fold greater activity against female gametocytes. Abbreviations (IC50 = concentration giving 50% inhibition, PbODA = P. berghei Ookinete Development Assay, PfDGFA = P. falciparum Dual Gamete Formation Assay, PfFGAA = P. falciparum Female Gametocyte Activation Assay, PfGCT = P. falciparum Gametocyte Viability ATP Assay).

[6] = test system: P. falciparum gametocytes; set-up: method as in Almela et al 2015; settings: ref Almela et al 2015; read-out: Pf Gametocyte viability (ATP) GC-ATP IC50; cited from earlier work
HepG2 cells [7] = settings: cited from earlier work
HepG2 cells [8] = assay: HepG2 cytotoxicity counter-screen; settings: mean of the HepG2 TOX50 values
[9] = test system: P. falciparum female gametocytes; assay: P. falciparum Female Gametocyte Activation Assay (PfFGAA); format: cell-based, Plasmodium falciparum; settings: Mean TOX HepG2 over FGAA IC50; GREEN = >10-fold; RED = <10-fold
[10] = test system: P. falciparum female gametocytes; set-up: method as in Miguel-Blanco et al 2017; settings: ref Miguel-Blanco et al 2017; read-out: Pf female gametogenesis FGAA IC50; cited from earlier work
[11] = test system: P. berghei ookinete development; assay: P. berghei Ookinete Development Assay (PbODA); format: cell-based, Plasmodium berghei; settings: Mean TOX HepG2 over Pb ODA value; GREEN = >10-fold; RED = <10-fold

SMILES | Cellular phenotype of male gametocytes [1] | Cytotox ratio Pf Male [2] | IC50 [2] | Cytotox ratio Pf Female [3] | IC50 [3] | impact on exflagellation [4] | Cytotox ratio Pf GC-ATP [5] | IC50 [6] | GC-ATP TOX50 HepG2 (HepG2 cells [7]) | Mean TOX (HepG2 cells [8]) | Cytotox ratio Pf FGAA [9] | IC50 [10] | FGAA TOX50 HepG2 (HepG2 cells [7]) | cells exflagellating ([4]; compound added concurrent with triggering gametogenesis, DMSO control 43.7%) | Cytotox ratio Pb Ookinete [11] | ODA TOX50 HepG2 (HepG2 cells [7]; HepG2 value reported with the ODA screen, ref Delves et al 2019)
O=S(=O)(NCC1(O)CCOc2ccccc21)c1ccc(Br)s1 (stereo not drawn) [DDD01035881, reference compound] | arrested male gametogenesis late |  |  |  |  |  |  |  |  |  |  |  |  |  |  | 
COc1ccc2nc3cc(Cl)ccc3c(NCCCCNc3c4ccc(Cl)cc4nc4ccc(OC)cc34)c2c1 [TC02] |  | 22.1 | 380 nM | 22.1 | 380 nM | little-to-no impact | 42.0 | 200 nM | 14.47 µM | 8.39 µM |  |  |  |  |  | 
CC(C)(C)c1ccc(-c2nc3c(ccc4nc(N)nc(N)c43)[nH]2)cc1.Cl [TC05] |  | 17.1 | 180 nM | 3.2 | 970 nM | little-to-no impact | 14.6 | 210 nM | 3.85 µM | 3.07 µM | 11.8 | 260 nM | 2.12 µM |  |  | 
O=C(c1ccc([N+](=O)[O-])o1)N1CCC(Cc2ccc(C(F)(F)F)cc2)CC1 [TC15] | retain their falciform shape but have a condensed mass of unreplicated DNA and several thin microtubule structures | 58.0 | 400 nM | 52.7 | 440 nM |  | 89.2 | 260 nM | 14.11 µM | 23.20 µM | 145.0 | 160 nM | 27.05 µM |  |  | 
CCN(CC)CCN(Cc1ccc(-c2ccc(C(F)(F)F)cc2)cc1)C(=O)Cn1cc(Cc2cnn(C)c2)c(=O)nc1/C=C/c1cccc(F)c1F.O=C(O)C(O)C(O)C(=O)O [TC18] | retain their falciform shape but have a condensed mass of unreplicated DNA and several thin microtubule structures | 19.6 | 630 nM | 3.0 | 4100 nM |  | 72.7 | 170 nM | 14.4 µM | 12.35 µM | 14.2 | 870 nM | 9.69 µM |  |  | 
Fc1ccc2[nH]c(-c3ccc(-c4ccc(CNCCN5CCNCC5)cc4)s3)nc2c1.O=C(O)C(F)(F)F [TC23] |  | 12.4 | 1970 nM | 3.4 | 7180 nM |  | 46.3 | 530 nM | 25 µM | 24.53 µM |  |  |  | 19.8% |  | 
COc1cc(-c2nc(C(C)(C)CN)[nH]c2-c2ccncc2)ccc1Br.Cl [TC27] | unactivated phenotype consistent with total arrest of gametogenesis | 23.6 | 1770 nM | 25.9 | 1610 nM |  |  |  |  | 41.74 µM |  |  |  |  | 31592.6 | 39.811 µM
